Data published in ChEMBL document CHEMBL5113408, “Design, synthesis and antitumour activity of novel 5(6)-amino-benzimidazolequinones containing a fused morpholine” (Eur J Med Chem, 2022).

How the values were obtained:
Assay type in all cases: functional, cell-based
[1] = tested on: MGC-803; assay: Antiproliferative activity against human MGC-803 cells assessed as inhibition of cell growth by SRB assay
[2] = tested on: ECa-109 cell line; assay: Antiproliferative activity against human EC109 cells assessed as inhibition of cell growth by SRB assay
[3] = tested on: MCF7; assay: Antiproliferative activity against human MCF7 cells assessed as inhibition of cell growth by SRB assay
[4] = tested on: HeLa; assay: Antiproliferative activity against human HeLa cells assessed as inhibition of cell growth by SRB assay

IC50 [1] [nM] | IC50 [3] [µM] | IC50 [4] [µM] | Compound | IC50 [2] [µM]
3740 | 5.15 | > 16 | O=C1C(Nc2ccccc2F)=CC(=O)c2c1nc1n2C[C@@H]([C@H](O)CO)OC1 | 5.51
2090 | > 4 | 14.4 | CCOc1ccc(NC2=CC(=O)c3c(nc4n3[C@H]3OC[C@@H](O)[C@H]3OC4)C2=O)cc1 | > 4
2000 | > 4 | 9.82 | O=C1C(Nc2ccccc2F)=CC(=O)c2c1nc1n2[C@H]2OC[C@@H](O)[C@H]2OC1 | 2.66
1560 | 4.66 | 4.99 | CCCc1ccc(NC2=CC(=O)c3nc4n(c3C2=O)[C@H]2OC[C@@H](O)[C@H]2OC4)cc1 | > 4
4420 | 6.81 | 8.97 | COc1ccccc1NC1=CC(=O)c2c(nc3n2C[C@@H]([C@H](O)CO)OC3)C1=O | 7.64
1670 | 6.58 | 7.46 | COc1ccccc1NC1=CC(=O)c2c(nc3n2[C@H]2OC[C@@H](O)[C@H]2OC3)C1=O | > 4
2820 | > 4 | > 8 | O=C1C=C(Nc2ccc(C(F)(F)F)cc2)C(=O)c2c1nc1n2[C@H]2OC[C@@H](O)[C@H]2OC1 | 5.5
2150 | 3.89 | 4.01 | O=C1C(Nc2ccc(I)cc2)=CC(=O)c2c1nc1n2[C@H]2OC[C@@H](O)[C@H]2OC1 | 2.53
4460 | > 16 | 6.59 | O=C1C=C(Nc2cccc(F)c2)C(=O)c2c1nc1n2C[C@@H]([C@H](O)CO)OC1 | 7.93
1630 | > 4 | 2.95 | COc1ccccc1NC1=CC(=O)c2nc3n(c2C1=O)[C@H]1OC[C@@H](O)[C@H]1OC3 | > 4
2080 | 3.64 | 5.12 | O=C1C=C(Nc2ccccc2F)C(=O)c2c1nc1n2[C@H]2OC[C@@H](O)[C@H]2OC1 | 2.76
> 16000 | > 16 | > 16 | CCCN(CCC)C1=CC(=O)c2c(nc3n2[C@H]2OC[C@@H](O)[C@H]2OC3)C1=O | > 16
> 16000 | > 16 | > 16 | O=C1C(N2CCC2)=CC(=O)c2c1nc1n2[C@H]2OC[C@@H](O)[C@H]2OC1 | > 16
6760 | 11.4 | 8.19 | COc1ccc(NC2=CC(=O)c3c(nc4n3C[C@@H]([C@H](O)CO)OC4)C2=O)cc1 | 10.8
2830 | > 4 | 8.3 | CCOc1ccccc1NC1=CC(=O)c2c(nc3n2[C@H]2OC[C@@H](O)[C@H]2OC3)C1=O | 4.32
2670 | > 8 | > 8 | O=C1C=C(NCc2ccccc2)C(=O)c2c1nc1n2[C@H]2OC[C@@H](O)[C@H]2OC1 | > 8
2780 | 5.01 | 7.89 | O=C1C(Nc2ccc(Br)cc2)=CC(=O)c2c1nc1n2C[C@@H]([C@H](O)CO)OC1 | 3.56
9260 | > 16 | 8.41 | COc1cccc(NC2=CC(=O)c3nc4n(c3C2=O)C[C@@H]([C@H](O)CO)OC4)c1 | > 16
1550 | > 4 | 6.59 | Cc1ccc(NC2=CC(=O)c3c(nc4n3[C@H]3OC[C@@H](O)[C@H]3OC4)C2=O)cc1 | > 4
3690 | 6.57 | 4.59 | CCc1ccc(NC2=CC(=O)c3c(nc4n3C[C@@H]([C@H](O)CO)OC4)C2=O)cc1 | 4.54
> 16000 | > 16 | > 16 | O=C1C=C(N2CCC2)C(=O)c2c1nc1n2[C@H]2OC[C@@H](O)[C@H]2OC1 | > 16
8900 | > 16 | 7.15 | COc1ccc(NC2=CC(=O)c3nc4n(c3C2=O)C[C@@H]([C@H](O)CO)OC4)cc1 | > 16
2860 | 6.73 | 2.41 | CCc1ccc(NC2=CC(=O)c3nc4n(c3C2=O)C[C@@H]([C@H](O)CO)OC4)cc1 | 4.87
1010 | 2.58 | 3.83 | O=C1C=C(Nc2ccc(Br)cc2)C(=O)c2c1nc1n2[C@H]2OC[C@@H](O)[C@H]2OC1 | 2.85
3240 | 9.17 | 5.86 | O=C1C=C(Nc2ccccc2F)C(=O)c2c1nc1n2C[C@@H]([C@H](O)CO)OC1 | 7.88
1110 | 8.99 | 6.51 | CCc1ccc(NC2=CC(=O)c3c(nc4n3[C@H]3OC[C@@H](O)[C@H]3OC4)C2=O)cc1 | > 4
> 8000 | > 16 | > 16 | O=C1C(NC2CCCCC2)=CC(=O)c2c1nc1n2[C@H]2OC[C@@H](O)[C@H]2OC1 | > 16
1790 | 3.83 | > 8 | COc1cccc(NC2=CC(=O)c3c(nc4n3[C@H]3OC[C@@H](O)[C@H]3OC4)C2=O)c1 | 3.34
> 4000 | > 8 | > 16 | O=C1C(N2CCCCC2)=CC(=O)c2c1nc1n2[C@H]2OC[C@@H](O)[C@H]2OC1 | > 8
4630 | 9.44 | 6.17 | CCCc1ccc(NC2=CC(=O)c3c(nc4n3C[C@@H]([C@H](O)CO)OC4)C2=O)cc1 | 5.12
